Test results as given in US8207223B2, “Pharmaceutical composition for treatment of diseases associated with decrease in bone mass comprising EP4 agonist as active ingredient” (Ono Pharmaceutical Co., Ltd., priority 2001, dated 2012).

Tests used:
fibula bone fracture = test: Effect of accelerating cure of bone fracture (rat fibula fracture model; callus bone density and three-point bending strength); format: in vivo, male IGS rats; conditions: 50 ng/kg/min intravenously for 2 hours twice a day for 21 days
Procedure: (ix) Effect of Accelerating Cure of Bone Fracture
According to the methods of R. Sakai (Bone, 25, 191-196 (1999)), H. Kawaguchi (Endocrinology, 135, 774-781 (1994)) and T. Hoshino (J. Biomed Mater Res., 51, 229-306 (2000)), a bone fracture model was prepared with male IGS rats of 8 weeks of age. Hair of the left hind-limb of a rat was cut under anesthetization with pentobarbital Na, and Viccillin S 500 (500 mg potency) (Meiji Seika) was intramuscularly injected at a dose of 10 mg potency/100 μl distilled water/body. Then, the skin on the fibula (from the back of knee joint to tendo Achillis) was incised to ablate the muscular tissue and expose the fibula. […] The recovered fibulae were taken radiographs to assess development of the cure of fracture based on the presence of a fracture line and callus formation, and the density and strength of the bone around the fracture portion were measured. […]
The bone density of the callus region at the fracture position of the recovered fibula was measured referring to the reports of C. […] During photographing, a phantom for quantitative analysis of bone salt for mice (Kyoto Kagaku Co.) was set together in order to make an analytical curve for measurement of bone density. The image was read by a Bio-imaging Analyzer BAS-1800 (FUJIFILM)/Image Reader (FUJIFILM) and processed with an Image Gauge, ver.3.1.12 (FUJIFILM). […]

murine EP4 = target: T1, murine EP4 (Mus musculus, UniProt P32240); test: Receptor-binding experiment (3H-PGE2 binding inhibition) using membranes of CHO cells expressing prostanoid receptor sub-types; conditions: binding to EP4 receptor, CHO cell membranes, read-out: Dissociation Constant Ki
T1 construct: expressed in transfected cells; host or cells: CHO cells (membrane fraction)
Procedure: (i) Experiment for receptor-binding using cells which express prostanoid receptor sub-types
According to the method of Sugimoto et al. (J. Biol. Chem., 267, 6463-6466 (1992)), CHO cells which expressed prostanoid receptor sub-types (murine EP1, EP2, EP3α, and EP4, respectively) were prepared and used as membrane authentic samples.
A reaction solution (200 μl) containing the prepared membrane fraction (0.5 mg/ml) and ^3H-PGE2 was incubated at room temperature for 1 hour. The reaction was terminated with ice cold buffer (3 ml), and the reaction mixture was filtered under suction through a glass filter (GF/B), on which the binding ^3H-PGE2 was trapped, and the binding radioactivity was measured by means of a liquid scintillator.
The Kd value was obtained from the Acatchard plots [Ann. N.Y. Acad. Sci., 51, 660 (1949)]. Non-specific binding was obtained as the binding in the presence of an excess amount (2.5 μM) of unlabelled PGE2. Measurement of the binding inhibition for ^3H-PGE2 with the compounds of the invention was performed by adding ^3H-PGE2 (2.5 nM) and a series of concentrations of the compound of the invention. In this reaction, the following buffer was used in all cases. • Buffer: 10 mM potassium phosphate (pH 6.9), 1 mM EDTA, 10 mM MgCl2, and 0.1M NaCl.
Dissociation constant Ki (μM) of each compound was calculated from the following equation. Ki=IC50/(1+([C]/Kd))

[1] = test system: collagen-induced arthritis; test: Arthritis induced by collagen in rats; format: in vivo, female DA/Slc rat; conditions: limbs scored at 27 days, full score 30, *p < 0.05
Procedure: (iv) Inhibitive Effect for Chronic Articular Rheumatism
(1) Arthritis Induced by Collagen in Rats
Experiment was performed according to the method of Osterman et al. (Inflamm. Res., 44, 258-263). An inducing agent (an emulsion prepared by adding an equal volume of physiological saline and 2 equivalent volume of incomplete Freund adjuvant to 0.3% solution of type II collagen of bovine origin) 0.1 ml each was applied intracutaneously to the 4 sites of the back of a female DA/Slc rat. After a lapse of 1 week, the same inducing agent was further applied intracutaneously to the tail root to induce arthritis. At 27 days the limbs were scored responding to the degree of redness and edema and assessed as 30 was regarded as full scores. The compound of the invention was dissolved in an equimolar amount of 0.02 mole/L sodium hydroxide solution, diluted with distilled water, and orally given 3 times a day from the next day of the first administration of inducer.

T1 sequence (P32240 whole entry): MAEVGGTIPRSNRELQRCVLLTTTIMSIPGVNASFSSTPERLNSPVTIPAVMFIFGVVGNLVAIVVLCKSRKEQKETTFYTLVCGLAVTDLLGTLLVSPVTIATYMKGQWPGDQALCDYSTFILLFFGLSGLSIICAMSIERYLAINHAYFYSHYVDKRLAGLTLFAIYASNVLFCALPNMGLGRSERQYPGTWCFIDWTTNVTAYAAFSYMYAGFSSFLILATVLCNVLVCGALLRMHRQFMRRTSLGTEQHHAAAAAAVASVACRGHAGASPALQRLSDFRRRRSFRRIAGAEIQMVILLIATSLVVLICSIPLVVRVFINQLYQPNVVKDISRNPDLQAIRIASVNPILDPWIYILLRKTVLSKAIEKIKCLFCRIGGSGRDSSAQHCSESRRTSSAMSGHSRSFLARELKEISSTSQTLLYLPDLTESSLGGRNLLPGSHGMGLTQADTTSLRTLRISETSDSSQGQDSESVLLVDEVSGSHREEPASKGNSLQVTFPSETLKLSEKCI

## COCc1cccc(C[C@H](O)/C=C/[C@H]2[C@H](O)CC(=O)[C@@H]2CCSCCCC(=O)OC)c1 [Compound (1), (11α,15α,13E)-9-Oxo-11,15-dihydroxy-16-(3-methoxymethylphenyl)-17,18,19,20-tetranor-5-thiaprost-13-enoic acid methyl ester]
Fibula bone fracture; callus region
  Bone Density: 42.8 ± 2.58 mg/cm^2
Fibula bone fracture; three-point bending test
  Fracture Strength: 30.4 ± 12.4% of intact

## O=C(O)CCCCCCN1C(=O)CC[C@@H]1/C=C/[C@@H](O)Cc1cccc(C#Cc2ccccc2)c1 [Example 2(pp), (15α,13E)-9-Oxo-15-hydroxy-16-(3-(2-phenylethynyl)phenyl)-17,18,19,20-tetranor-8-azaprost-13-enoic acid]
Murine EP4
  Ki: 0.24 nM

## O=C(O)CCCSCCN1C(=O)CC[C@@H]1/C=C/[C@@H](O)Cc1cccc(Cl)c1 [Example 3 (b), (15α,13E)-9-Oxo-15-hydroxy-16-(3-chlorophenyl)-17,18,19,20-tetranor-5-thia-8-azaprost-13-enoic acid]
[1]; 300 μg/kg orally 3 times a day
  Arthritic Score (Means ± SE): 19.3 ± 1.4*

## Cc1ccc(C[C@H](O)/C=C/[C@H]2CCC(=O)N2CCSCCCC(=O)O)o1 [Example 3 (kk), (15α,13E)-9-Oxo-5-hydroxy-16-(5-methylfuran-2-yl)-17,18,19,20-tetranor-5-thia-8-azaprost-13-enoic acid]
[1]; 100 μg/kg orally 3 times a day
  Arthritic Score (Means ± SE): 11.9 ± 3.6*

## O=C(O)CCCSCCN1C(=O)CC[C@@H]1/C=C/[C@@H](O)Cc1ccc(F)cc1 [Example 3 (l), (15α,13E)-9-Oxo-15-hydroxy-16-(4-fluorophenyl)-17,18,19,20-tetranor-5-thia-8-azaprost-13-enoic acid]
[1]; 100 μg/kg orally 3 times a day
  Arthritic Score (Means ± SE): 16.3 ± 3.0*

## CCCc1cccc(C[C@H](O)/C=C/[C@H]2CCC(=O)N2CCSCCCC(=O)O)c1 [Example 3(e), (15α,13E)-9-Oxo-15-hydroxy-16-(3-propylphenyl)-17,18,19,20-tetranor-5-thia-8-azaprost-13-enoic acid]
Murine EP4
  Ki: 0.71 nM

## O=C1CC[C@H](/C=C/[C@@H](O)Cc2ccc(F)cc2)N1CCSCCCCO [Example 4 (h), (15α,13E)-9-Oxo-15-hydroxy-16-(4-fluorophenyl)-17,18,19,20-tetranor-5-thia-8-azaprost-13-en-1-ol]
[1]; 300 μg/kg orally 3 times a day
  Arthritic Score (Means ± SE): 9.8 ± 1.9*
